Source: patent US9943502B2, “Lung cancer adjuvant therapy” (Texas Tech University System, priority 2014, dated 2018)
“Also recorded” adds a separate entry of the source.

Legend:
[1] = Treatment of mouse xenografts: body weight and side effects; format: in vivo, female athymic mice; details: two weeks after treatment; without deteriorating behavior and health condition
Procedure: (§1) Treatment of mouse xenografts. Thirty-two female athymic mice, 7-8 weeks of age and 23.5 g in weight (strain code 088, Charles River Laboratory) were each injected subcutaneously with 1×10^6 lung cancer A549 cells in the lower flank. […] All injections were carried out for three times per week. Mice body weights and tumor sizes were measured three times per week.

A549 cells [2] = experiment: Array-based SYBR Green RT-PCR (RT2 Profiler PCR array, Human Cancer Drug Targets, 84 genes); format: cell-based
Procedure: Array-based SYBR® Green RT-PCR. Constitutive gene expression profiling was performed using the RT^2 Profiler™ PCR array to analyze the expression of 84 genes involving in cancer signal pathways (Human Cancer Drug Targets, Qiagen) based on manufacturer's instructions and our previous publications^33, 34. Studies were performed in duplicate for each group.

A549CRM1− cells = experiment: Cell viability assay (MTT); format: cell-based; details: FIG. 4A, P<0.05
Procedure: Cell viability assay. Cell viability was evaluated using the MTT (3-(4,5-dimethylthiazol-2-yl)-2,5-diphenyltetrazolium bromide) assay as previously described^29, 33. […] Studies were performed independently in triplicate.

A549 cells [3] = experiment: Analysis of cell cycle by flow cytometry; format: cell-based; details: 25 μM cisplatin and/or 0.5 nM LMB, 24 and 48 h
Procedure: Analysis of cell cycle by flow cytometry. The cells were harvested after 24 and 48 h of treatment. […] Cell cycle analysis was conducted by a Guava EasyCyte™ Flow Cytometer (Millipore) as previously described^32, 33. Each sample was run in triplicate and each experiment was repeated three times.

A549 cells [4] = experiment: Western blot analyses of PARP1, p21 and survivin; format: cell-based; details: 24 and 48 h, P<0.05
Procedure: Western blot analyses. […] Immunoblotting was performed using different primary antibodies and α-tubulin as the internal control.

[5] = test system: lung cancer A549 cells xenografts; experiment: Treatment of mouse xenografts: tumor growth; format: in vivo, female athymic mice; details: intra-tumoral injection three times per week; Cis 2.5 mg/Kg, LMB 2 μg/Kg
Procedure: Xenograft animal model. The handling of animals was in accordance with the Institutional Animal Care and Use Committee. Female athymic mice, 7-8 weeks of age and 23.5 g in weight (Charles River Laboratory) received subcutaneous injection of 1×10^6 A549 or A549CRM1− cells in the lower flank (n=8/group). Tumor volume was measured by a digital caliper (Thermo Fisher Scientific). The major longitudinal diameter (length) and the major transverse diameter (width) were determined. Tumor volume was calculated based on caliper measurements by the following formula: Tumor volume=½ (length×width^2).
as §1

[6] = test system: normal bronchial epithelial cells; details: cited from earlier work
lung cancer cells = details: cited from earlier work
[7] = in vivo; cited from earlier work
lung tissues = experiment: Mouse model of NNK-induced lung tumors, Western blot of lung tumors; format: in vivo, FVB/N mice; details: NNK-treated mice, P<0.01
Procedure: Mouse model and NNK-induced lung tumors. Male FVB/N mice are an intermediately susceptible strain with regard to spontaneous lung tumor formation and have been used for studies of NNK-induced lung tumorigenesis^31. Mice were each given two intra-peritoneal injections of 3 mg NNK per week (NNK-treated group, n=8) or 0.9% saline (vehicle control group, n=8). From each group, mice were sacrificed at 32-weeks after the last NNK- or saline-treatment. Lung tissues were fresh frozen or formalin-fixed and paraffin-embedded.

phospho-p53 (Thr55) = phospho-p53 (Thr55) protein expression in BEAS-2B cells after NNK exposure; format: cell-based, human
Procedure: (§2) Human normal lung epithelial cells BEAS-2B with NNK exposure/transformation or CRM1 stable overexpression. Human normal bronchial epithelial cell line BEAS-2B was obtained from American Type Culture Collection (ATCC). (1) For short-term NNK exposure, BEAS-2B cells were treated with 0, 10, 75, or 150 μM NNK for 24 and 72 h in triplicate as described in our previous study^29; (2) BEAS-2BNNK, an in vitro transformed cell model derived from BEAS-2B, was generated by exposure to NNK (15 μM) for 24 h and then continuously sub-cultured for 9 passages. […] Similarly, BEAS-2B was transfected with vector control for comparison. BEAS-2B, BEAS-2BNNK, and BEAS-2BCRM1+ cells were cultured in LHC-9 medium (Invitrogen) containing 100 U penicillin/mL and 100 μg/mL streptomycin.

CRM1 = CRM1 expression (qRT-PCR, Western blot) in NNK-transformed BEAS-2B cells; format: cell-based, human; details: BEAS-2BNNK, P<0.05
Procedure: as §2
Isolation of total RNA and quantitative real-time PCR (qRT-PCR). Total RNA was isolated using an RiNeasy® plus mini kit (Qiagen) following the manufacturer protocol. One-Step RT-PCR kit with SYBR green was used for amplification of total RNA (75 ng) by following the manufacturer's protocol (BioRad) and our recent publication^32. […] Threshold cycle number (Ct value) was analyzed using CFX Manager Software (Bio-Rad). The Ct value of CRM1 was normalized to the Ct value of GAPDH from same sample and the fold change in the expression was calculated by using the ΔΔCt method. […]

BEAS-2B cells = experiment: Soft agar colony assay of NNK-transformed BEAS-2B cells; format: cell-based, human; details: NNK 15 μM for 24 h, then 9 passages (BEAS-2BNNK), P<0.05
Procedure: as §2
Soft agar colony assay (Anchorage independent growth assay). Cells were suspended at 5×10^4 cells/mL for BEAS-2B, BEAS-2BNNK, and BEAS-2BCRM1+ or 2×10^4 cells/mL for A549 and A549CRM1− cells in growth medium containing 0.35% agar. Cell suspension was added to a 6-well tissue culture plate pre-coated with 0.7% solid agar. After 9-11 days of incubation (9 days for A549 and 11 days for BEAS-2B), the number of colonies/microscope area (6 randomly selected areas/well) was counted and their sizes were analyzed using cell staining (0.005% Crystal Violet) by microscope. This study was done in triplicate.

[8] = cisplatin 10 and 25 μM with or without 0.5 nM LMB

N.N.[Cl][Pt][Cl] [Cis, cisplatin]
body weight for mice [1]: started to decrease gradually | expression level of AURKA, AURKB, CDK1, HIF1A, MDM4, PLK1, PLK4, and TNKS compared to the control (A549 cells [2]; 25 μM cisplatin, P<0.05): significantly decreased expression level | expression of CTSB, GRB2, MDM2, and NF-κB compared to the control (A549 cells [2]; 25 μM cisplatin, P<0.05): increased expression | NF-κB expression (A549 cells [2]; A549 cells): increased expression of NF-κB | sensitivity of A549CRM1− cells compared with A549 cells (A549CRM1− cells): even more sensitive | cell cycle distribution compared with the control (A549 cells [3]): significantly higher proportion of cells in S and G2/M phases | survivin expression level compared to controls (A549 cells [4]): significantly decreased | PARP1 protein expression compared to vehicle-treated cells (A549 cells [4]; [8]): significantly increased in a dose-response manner | p21 protein expression compared to vehicle-treated cells (A549 cells [4]; [8]): significantly increased in a dose-response manner | tumor growth compared to the vehicle-treated control [5]: significant decrease in tumor growth; also recorded: significantly delayed tumor growth

CCC(=C/[C@H](C)C/C=C/C(C)=C/[C@@H](C)C(=O)[C@@H](C)[C@H](O)[C@@H](C)C/C(C)=C/C(=O)O)/C=C/[C@@H]1OC(=O)C=C[C@@H]1C [LMB, leptomycin B]
effects on normal bronchial epithelial cells [6]: minimal effects | gene expression profile compared to the control group (A549 cells [2]; 0.5 nM LMB): No significant difference | effect on lung cancer cells (lung cancer cells): inhibit lung cancer cell growth and induce cytotoxicity | cell cycle distribution compared with the control (A549 cells [3]): did not alter the cell cycle distribution | side effects in the phase I clinical trial [7]: malaise and anorexia | tumor growth compared to the vehicle-treated control [5]: growth curves followed a similar trend

CN(CCCC(=O)c1cccnc1)N=O [NNK, 4-(methylnitrosamino)-1-(3-pyridyl)-1-butanone]
CRM1 expression in lung tumor tissues compared with normal tissues (lung tissues; 32 weeks after last treatment): increased CRM1 expression | p-p53 at Thr55 in lung tumors compared with normal lung tissues (lung tissues): significant increase | phosphorylated-p53 (p-p53) at Thr55 in NNK-transformed cells (phospho-p53 (Thr55); BEAS-2BNNK cells, FIG. 2B): overexpressed | protein expression levels of p-p53 at Thr55 compared to vehicle-treated BEAS-2B cells (phospho-p53 (Thr55); NNK 10, 75 and 150 μM for 24 and 72 h, P<0.05): dose-dependent decrease | CRM1 expression at the mRNA level compared to vehicle-treated BEAS-2B cells (CRM1): 2.6 folds | CRM1 expression at the protein level compared to vehicle-treated BEAS-2B cells (CRM1): ~1.5 folds | soft agar colony number and colony size compared with vehicle-treated BEAS-2B cells (BEAS-2B cells): significant increase in both colony number and colony size
